± gives the uncertainty stated by the source.
Experiment: xn = mol fraction of the nth substance listed
Settings: for electrical conductivity: 101 kPa; for viscosity: 101.33 kPa, x2 = 0.5

O=P([O-])([O-])[O-].[Na+].[Na+].[Na+] + CCCCCCCCCCCC[N+](C)(C)C.[Br-] + O
electrical conductivity (298.15 K, x2 = 0, x1 = 0.0001802): 0.411 ± 0.0008 S/m
electrical conductivity (298.15 K, x2 = 0, x1 = 0.001799): 2.052 ± 0.004 S/m
electrical conductivity (298.15 K, x2 = 5.23e-06, x1 = 0.0001802): 0.411 ± 0.0008 S/m
electrical conductivity (298.15 K, x2 = 7.86e-06, x1 = 0.001799): 2.048 ± 0.004 S/m
electrical conductivity (298.15 K, x2 = 1.209e-05, x1 = 0.0001802): 0.4123 ± 0.0008 S/m
electrical conductivity (298.15 K, x2 = 1.591e-05, x1 = 0.001799): 2.047 ± 0.004 S/m
electrical conductivity (298.15 K, x2 = 1.895e-05, x1 = 0.0001802): 0.4139 ± 0.0008 S/m
electrical conductivity (298.15 K, x2 = 2.633e-05, x1 = 0.001799): 2.047 ± 0.004 S/m
electrical conductivity (298.15 K, x2 = 2.887e-05, x1 = 0.0001802): 0.4171 ± 0.0008 S/m
electrical conductivity (298.15 K, x2 = 3.573e-05, x1 = 0.0001802): 0.4194 ± 0.0008 S/m
electrical conductivity (298.15 K, x2 = 3.912e-05, x1 = 0.001799): 2.048 ± 0.004 S/m
electrical conductivity (298.15 K, x2 = 4.223e-05, x1 = 0.0001802): 0.4213 ± 0.0008 S/m
electrical conductivity (298.15 K, x2 = 4.89e-05, x1 = 0.0001802): 0.4235 ± 0.0008 S/m
electrical conductivity (298.15 K, x2 = 5.21e-05, x1 = 0.001799): 2.049 ± 0.004 S/m
electrical conductivity (298.15 K, x2 = 5.756e-05, x1 = 0.0001802): 0.4261 ± 0.0009 S/m
electrical conductivity (298.15 K, x2 = 6.605e-05, x1 = 0.0001802): 0.429 ± 0.0009 S/m
electrical conductivity (298.15 K, x2 = 6.673e-05, x1 = 0.001799): 2.051 ± 0.004 S/m
electrical conductivity (298.15 K, x2 = 7.416e-05, x1 = 0.0001801): 0.4318 ± 0.0009 S/m
electrical conductivity (298.15 K, x2 = 8.172e-05, x1 = 0.001799): 2.054 ± 0.004 S/m
electrical conductivity (298.15 K, x2 = 8.246e-05, x1 = 0.0001801): 0.4346 ± 0.0009 S/m
electrical conductivity (298.15 K, x2 = 9.058e-05, x1 = 0.0001801): 0.4375 ± 0.0009 S/m
electrical conductivity (298.15 K, x2 = 9.852e-05, x1 = 0.0001801): 0.4405 ± 0.0009 S/m
electrical conductivity (298.15 K, x2 = 9.872e-05, x1 = 0.001799): 2.059 ± 0.004 S/m
electrical conductivity (298.15 K, x2 = 0.000107, x1 = 0.0001801): 0.444 ± 0.0009 S/m
electrical conductivity (298.15 K, x2 = 0.0001133, x1 = 0.001799): 2.063 ± 0.004 S/m
electrical conductivity (298.15 K, x2 = 0.0001155, x1 = 0.0001801): 0.4477 ± 0.0009 S/m
electrical conductivity (298.15 K, x2 = 0.0001247, x1 = 0.0001801): 0.4515 ± 0.0009 S/m
electrical conductivity (298.15 K, x2 = 0.0001301, x1 = 0.001799): 2.067 ± 0.004 S/m
electrical conductivity (298.15 K, x2 = 0.0001324, x1 = 0.0001801): 0.4544 ± 0.0009 S/m
electrical conductivity (298.15 K, x2 = 0.0001404, x1 = 0.0001801): 0.4573 ± 0.0009 S/m
electrical conductivity (298.15 K, x2 = 0.000147, x1 = 0.001798): 2.07 ± 0.01 S/m
electrical conductivity (298.15 K, x2 = 0.000148, x1 = 0.0001801): 0.4602 ± 0.0009 S/m
electrical conductivity (298.15 K, x2 = 0.0001566, x1 = 0.0001801): 0.4633 ± 0.0009 S/m
electrical conductivity (298.15 K, x2 = 0.0001632, x1 = 0.001798): 2.074 ± 0.004 S/m
electrical conductivity (298.15 K, x2 = 0.0001658, x1 = 0.0001801): 0.4669 ± 0.0009 S/m
electrical conductivity (298.15 K, x2 = 0.000175, x1 = 0.0001801): 0.4702 ± 0.0009 S/m
electrical conductivity (298.15 K, x2 = 0.0001791, x1 = 0.001798): 2.078 ± 0.004 S/m
electrical conductivity (298.15 K, x2 = 0.0001842, x1 = 0.0001801): 0.4735 ± 0.0009 S/m
electrical conductivity (298.15 K, x2 = 0.0001934, x1 = 0.0001801): 0.4766 ± 0.001 S/m
electrical conductivity (298.15 K, x2 = 0.0001954, x1 = 0.001798): 2.081 ± 0.004 S/m
electrical conductivity (298.15 K, x2 = 0.0002026, x1 = 0.0001801): 0.4791 ± 0.001 S/m
electrical conductivity (298.15 K, x2 = 0.0002111, x1 = 0.001798): 2.083 ± 0.004 S/m
electrical conductivity (298.15 K, x2 = 0.0002116, x1 = 0.0001801): 0.481 ± 0.001 S/m
electrical conductivity (298.15 K, x2 = 0.0002205, x1 = 0.0001801): 0.4824 ± 0.001 S/m
electrical conductivity (298.15 K, x2 = 0.0002268, x1 = 0.001798): 2.086 ± 0.004 S/m
electrical conductivity (298.15 K, x2 = 0.0002327, x1 = 0.0001801): 0.4842 ± 0.001 S/m
electrical conductivity (298.15 K, x2 = 0.0002427, x1 = 0.001798): 2.089 ± 0.004 S/m
electrical conductivity (298.15 K, x2 = 0.0002436, x1 = 0.0001801): 0.4857 ± 0.001 S/m
electrical conductivity (298.15 K, x2 = 0.0002524, x1 = 0.0001801): 0.4866 ± 0.001 S/m
electrical conductivity (298.15 K, x2 = 0.0002579, x1 = 0.001798): 2.091 ± 0.004 S/m
electrical conductivity (298.15 K, x2 = 0.0002612, x1 = 0.0001801): 0.4876 ± 0.001 S/m
electrical conductivity (298.15 K, x2 = 0.0002726, x1 = 0.0001801): 0.489 ± 0.001 S/m
electrical conductivity (298.15 K, x2 = 0.0002731, x1 = 0.001798): 2.094 ± 0.004 S/m
electrical conductivity (298.15 K, x2 = 0.0002851, x1 = 0.0001801): 0.4902 ± 0.001 S/m
electrical conductivity (298.15 K, x2 = 0.0002866, x1 = 0.001798): 2.096 ± 0.004 S/m
electrical conductivity (298.15 K, x2 = 0.0002984, x1 = 0.0001801): 0.4919 ± 0.001 S/m
electrical conductivity (298.15 K, x2 = 0.0003017, x1 = 0.001798): 2.099 ± 0.004 S/m
electrical conductivity (298.15 K, x2 = 0.0003094, x1 = 0.0001801): 0.4931 ± 0.001 S/m
electrical conductivity (298.15 K, x2 = 0.0003171, x1 = 0.001798): 2.101 ± 0.004 S/m
electrical conductivity (298.15 K, x2 = 0.0003315, x1 = 0.001798): 2.103 ± 0.004 S/m
electrical conductivity (298.15 K, x2 = 0.0003393, x1 = 0.0001801): 0.4959 ± 0.001 S/m
electrical conductivity (298.15 K, x2 = 0.0003465, x1 = 0.001798): 2.105 ± 0.004 S/m
electrical conductivity (298.15 K, x2 = 0.0003608, x1 = 0.001798): 2.108 ± 0.004 S/m
electrical conductivity (298.15 K, x2 = 0.0003754, x1 = 0.001798): 2.11 ± 0.01 S/m
electrical conductivity (298.15 K, x2 = 0.0003895, x1 = 0.001798): 2.112 ± 0.004 S/m
electrical conductivity (298.15 K, x2 = 0.000403, x1 = 0.001798): 2.114 ± 0.004 S/m
electrical conductivity (298.15 K, x2 = 0.0004205, x1 = 0.001798): 2.117 ± 0.004 S/m

CC(C)[C@H](NC(=O)CN)C(=O)O + CCCCCCCCCCCC[N+](C)(C)Cc1ccccc1.[Cl-] + O
electrical conductivity (293.15 K, x1 = 0.0008948, x2 = 0): 0.00327 ± 0.0002 S/m
electrical conductivity (293.15 K, x1 = 0.001799, x2 = 0): 0.00533 ± 0.00033 S/m
electrical conductivity (298.15 K, x1 = 0.0008948, x2 = 0): 0.00375 ± 0.00023 S/m
electrical conductivity (298.15 K, x1 = 0.001799, x2 = 0): 0.00608 ± 0.00038 S/m
electrical conductivity (303.15 K, x1 = 0.0008948, x2 = 0): 0.00427 ± 0.00026 S/m
electrical conductivity (303.15 K, x1 = 0.001799, x2 = 0): 0.0069 ± 0.0004 S/m
electrical conductivity (308.15 K, x1 = 0.0008948, x2 = 0): 0.00485 ± 0.0003 S/m
electrical conductivity (308.15 K, x1 = 0.001799, x2 = 0): 0.0078 ± 0.0005 S/m
electrical conductivity (313.15 K, x1 = 0.0008948, x2 = 0): 0.0055 ± 0.0003 S/m
electrical conductivity (313.15 K, x1 = 0.001799, x2 = 0): 0.00879 ± 0.00054 S/m

c1c[nH]cn1 + CCCCCC[N+]1(C)CCCC1.O=S(=O)([N-]S(=O)(=O)C(F)(F)F)C(F)(F)F
viscosity (343.15 K): 11 ± 2.2 mPa·s
viscosity (353.15 K): 8 ± 1.6 mPa·s

— the CheMixHub ionic liquid set
